Measured values published in patent US8492087B2, “Method of judging risk for onset of drug-induced granulocytopenia” (Otsuka Pharmaceutical Co., Ltd., priority 2003, dated 2013).

Tested on: human IRS-2 gene
Experiment: Association analysis of human IRS-2 gene polymorphisms and granulocytopenia induced by vesnarinone administration
Format: in vivo
Details: subjects who had received vesnarinone
Source text: In order to find genetic polymorphisms in relation to granulocytopenia attributed to drug administration, there were employed subjects who had received vesnarinone (3,4-dihydro-6-[4-(3,4-dimethoxybenzoy1)-1-piperaziny1]-2(1H)-quinoline).
Among subjects who had received vesnarinone, had orally agreed to cooperate with investigation of the cause for vesnarinone-induced granulocytopenia between May 1991 and October 1996, and had accepted to provide a blood sample, there were employed 84 subjects (male/female ratio=1.21:1) who had again agreed in writing to cooperate with genetic analysis according to ethical guidelines between July 2001 and December 2001. Genomic DNA was extracted from a blood sample (or a cell sample derived therefrom) of each of the subjects who had again agreed described above. through a common method, and was employed for the below-described tests.
Among the subjects, subjects having leukocytes or neutrophils which were decreased to half or less following vesnarinone administration, and having the number of leukocytes of 2,000/mm^3 or less, or the number of neutrophils of 1,000/mm^3 or less were classified as “subjects with granulocytopenia”.
Each of these groups was further classified into two groups according to sex, to thereby become four subgroups; i.e., a group of 13 male with granulocytopenia (group A), a group of 17 female with granulocytopenia (group B), a group of 33 male without granulocytopenia (group C), and a group of 21 female without granulocytopenia (group D).
The allele frequencies in the group of subjects with granulocytopenia were compared to that of subjects without granulocytopenia by the contingency χ square test. The odds ratio was estimated through the Brown method (Brown, C. C., Am. J. Epidemiol., 113: 474-480 (1981)). The 95% confidence interval of odds ratio was calculated through the Woolf method.
In order to determine the genotype distribution, all polymorphisms identified by the discovery above were analyzed in the all subjects described in Example 1 by amplifying the regions containing the polymorphisms with primer sets and sequencing the PCR products under the condition described above.
In addition to the statistical methods employed in Example 1, a pair-wise linkage disequilibrium coefficient (D′=D/Dmax or D/Dmin) was calculated by use of the method by Thompson, et al. (Thompson, E. A., et al., Am. J. Hum. Genet. 42: 113-124 (1988))

With `COc1ccc(C(=O)N2CCN(c3ccc4c(c3)CCC(=O)N4)CC2)cc1OC` [vesnarinone, 3,4-dihydro-6-[4-(3,4-dimethoxybenzoy1)-1-piperaziny1]-2(1H)-quinoline] as the compound, how does the “subjects with agranulocytosis N (%)” value (IRS-2 A15870G genotype AA, total 27) read?
The value was 10 (37.0) N (%).

What about the “subjects without agranulocytosis N (%)” value (IRS-2 A15870G genotype AA, total 49) of the same compound?
The value was 36 (73.5) N (%).

What about the “subjects with agranulocytosis N (%)” value (IRS-2 A15870G genotype AG + GG, total 27) of the same compound?
The value was 17 (63.0) N (%).

And the “subjects without agranulocytosis N (%)” value (IRS-2 A15870G genotype AG + GG, total 49)?
The value was 13 (26.5) N (%).

What about the “subjects with agranulocytosis N (%)” value (IRS-2 A29793G genotype AA, total 30) of the same compound?
The value was 11 (36.7) N (%).

And the “subjects without agranulocytosis N (%)” value (IRS-2 A29793G genotype AA, total 53)?
Its value is 39 (73.6) N (%).

And the “subjects with agranulocytosis N (%)” value (IRS-2 A29793G genotype AG + GG, total 30)?
Its value is 19 (63.3) N (%).

What about the “subjects without agranulocytosis N (%)” value (IRS-2 A29793G genotype AG + GG, total 53) of the same compound?
Its value is 14 (26.4) N (%).

And the “subjects with agranulocytosis N (%)” value (IRS-2 A-1164C genotype AA, total 30)?
Its value is 8 (26.7) N (%).

And the “subjects without agranulocytosis N (%)” value (IRS-2 A-1164C genotype AA, total 49)?
Its value is 29 (59.2) N (%).

What about the “subjects with agranulocytosis N (%)” value (IRS-2 A-1164C genotype AC + CC, total 30) of the same compound?
The value was 22 (73.3) N (%).

And the “subjects without agranulocytosis N (%)” value (IRS-2 A-1164C genotype AC + CC, total 49)?
The value was 20 (40.8) N (%).

And the “subjects with agranulocytosis N (%)” value (IRS-2 AT-2510del genotype AT, total 29)?
Its value is 7 (24.1) N (%).

And the “subjects without agranulocytosis N (%)” value (IRS-2 AT-2510del genotype AT, total 49)?
The value was 28 (57.1) N (%).

And the “subjects with agranulocytosis N (%)” value (IRS-2 AT-2510del genotype ATdel + del, total 29)?
Its value is 22 (75.9) N (%).

And the “subjects without agranulocytosis N (%)” value (IRS-2 AT-2510del genotype ATdel + del, total 49)?
The value was 21 (42.9) N (%).

And the “subjects with agranulocytosis N (%)” value (IRS-2 C31532del genotype CC, total 27)?
The value was 9 (33.3) N (%).

What about the “subjects without agranulocytosis N (%)” value (IRS-2 C31532del genotype CC, total 48) of the same compound?
Its value is 34 (70.8) N (%).

And the “subjects with agranulocytosis N (%)” value (IRS-2 C31532del genotype Cdel + del, total 27)?
The value was 18 (66.7) N (%).

And the “subjects without agranulocytosis N (%)” value (IRS-2 C31532del genotype Cdel + del, total 48)?
Its value is 14 (29.2) N (%).

What about the “subjects with agranulocytosis N (%)” value (IRS-2 C-4587A genotype CA + AA, total 28) of the same compound?
The value was 21 (75.0) N (%).

What about the “subjects without agranulocytosis N (%)” value (IRS-2 C-4587A genotype CA + AA, total 49) of the same compound?
The value was 20 (40.8) N (%).

What about the “subjects with agranulocytosis N (%)” value (IRS-2 C-4587A genotype CC, total 28) of the same compound?
Its value is 7 (25.0) N (%).

And the “subjects without agranulocytosis N (%)” value (IRS-2 C-4587A genotype CC, total 49)?
The value was 29 (59.2) N (%).
